Source: PubChem BioAssay AID248 (DTP/NCI, 2004)
“And” between values parts separate entries of the source, which are not always exact repeats. Equal values may be shown once. Inconclusive results and toxic doses are left out. Rule as the data show it: active = T/C of 150% or more; inactive = T/C below 125%.

System: L1210 leukemia ip in BDF1 mice, survival T/C
Experiment: NCI In Vivo Anticancer Drug Screen. Data for tumor model L1210 Leukemia (intraperitoneal) in B6D2F1 (BDF1) mice
Details: endpoint: mean survival time, higher = longer survival
Method in brief: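 Transplantable tumor model; survival measured in treated vs vehicle control mice. Value = treated/control.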

[1] = dose: 100.0 mg/kg/injection, schedule: Q01DX001 (ip), vehicle: saline with Tween-80
[2] = dose: 200.0 mg/kg/injection, schedule: Q01DX001 (ip), vehicle: saline with Tween-80
[3] = dose: 400.0 mg/kg/injection, schedule: Q01DX001 (ip), vehicle: saline with Tween-80
[4] = dose: 100.0 mg/kg/injection, schedule: Q01DX001 (ip), vehicle: saline
[5] = dose: 200.0 mg/kg/injection, schedule: Q01DX001 (ip), vehicle: saline
[6] = dose: 400.0 mg/kg/injection, schedule: Q01DX001 (ip), vehicle: saline
[7] = dose: 100.0 mg/kg/injection, schedule: Q01DX001 (ip), vehicle: carboxymethylcellulose (CMC)
[8] = dose: 200.0 mg/kg/injection, schedule: Q01DX001 (ip), vehicle: carboxymethylcellulose (CMC)
[9] = dose: 400.0 mg/kg/injection, schedule: Q01DX001 (ip), vehicle: carboxymethylcellulose (CMC)
[10] = dose: 100.0 mg/kg/injection, schedule: Q01DX001 (ip), vehicle: Klucel (hydroxypropylcellulose) (HPC)
[11] = dose: 200.0 mg/kg/injection, schedule: Q01DX001 (ip), vehicle: Klucel (hydroxypropylcellulose) (HPC)
[12] = dose: 400.0 mg/kg/injection, schedule: Q01DX001 (ip), vehicle: Klucel (hydroxypropylcellulose) (HPC)
[13] = dose: 100.0 mg/kg/injection, schedule: Q04DX002 (ip), vehicle: saline
[14] = dose: 200.0 mg/kg/injection, schedule: Q04DX002 (ip), vehicle: saline
[15] = dose: 400.0 mg/kg/injection, schedule: Q04DX002 (ip), vehicle: saline
[16] = dose: 100.0 mg/kg/injection, schedule: Q04DX003 (ip), vehicle: saline with Tween-80
[17] = dose: 200.0 mg/kg/injection, schedule: Q04DX003 (ip), vehicle: saline with Tween-80
[18] = dose: 400.0 mg/kg/injection, schedule: Q04DX003 (ip), vehicle: saline with Tween-80
[19] = dose: 100.0 mg/kg/injection, schedule: Q01DX009 (ip), vehicle: saline with Tween-80
[20] = dose: 100.0 mg/kg/injection, schedule: Q04DX002 (ip), vehicle: saline with Tween-80
[21] = dose: 200.0 mg/kg/injection, schedule: Q01DX009 (ip), vehicle: saline with Tween-80
[22] = dose: 200.0 mg/kg/injection, schedule: Q04DX002 (ip), vehicle: saline with Tween-80
[23] = dose: 400.0 mg/kg/injection, schedule: Q01DX009 (ip), vehicle: saline with Tween-80
[24] = dose: 400.0 mg/kg/injection, schedule: Q04DX002 (ip), vehicle: saline with Tween-80

Measured: T/C

CCCCCCCCN(C)Cc1cc(C(C)(C)C)cc(-c2ccccc2)c1O
inactive: [1] 94 % of control | [2] 90 % of control | [3] 92 % of control

CCCCCCCCCCCCc1ccc2c(ccc3ccccc32)c1
inactive: [4] 95 % of control | [5] 98 % of control | [6] 98 % of control

O=C(CO)NCO
inactive: [4] 103 % of control | [5] 101 % of control | [6] 101 % of control

C/C(=C/C(=O)O)C(=O)Nc1cccc2c(NC(=O)/C(C)=C/C(=O)O)cccc12
inactive: [7] 95 % of control | [8] 96 % of control | [9] 96 % of control

CN(C)c1c(-c2ccccc2)cc(-c2ccccc2)[nH]c1=O
inactive: [7] 95 % of control | [8] 95 % of control | [9] 88 % of control

CCCCCCCCCCCCCC(=O)OC1CCC2(C)C(=CCC3C2CCC2(C)C(C(C)CCCC(C)C)CCC32)C1 (stereo not drawn)
inactive: dose: 50.0 mg/kg/injection, schedule: Q01DX001 (ip), vehicle: Klucel (hydroxypropylcellulose) (HPC) 96 % of control | [10] 89 % of control | [11] 87 % of control and 89 % of control | [12] 87 % of control

CC(C)[CH2][Sn]([CH2]C(C)C)([CH2]C(C)C)[C](C)(C)C
inactive: [13] 94 % of control | [14] 90 % of control | [15] 100 % of control

CCCCCCC(C)O[Si](C)c1ccc(CC)cc1 (stereo not drawn)
inactive: [16] 99 % of control | [17] 95 % of control | [18] 103 % of control

COc1cc(/C=C(/C#N)C(=O)N2CCOCC2)cc(OC)c1OC
inactive: [19] 87 % of control | [20] 90 % of control | [21] 93 % of control | [22] 104 % of control | [23] 93 % of control | [24] 101 % of control

Cc1cccc(CN2C(=O)c3ccccc3C2=O)c1
inactive: [10] 100 % of control | [11] 103 % of control | [12] 102 % of control

CCCCCCCCCCCCCCCCN(C)S(=O)(=O)c1ccc(N2CCOCC2)c(N)c1
inactive: dose: 100.0 mg/kg/injection, schedule: Q04DX003 (ip), vehicle: gum acacia 88 % of control | dose: 200.0 mg/kg/injection, schedule: Q04DX003 (ip), vehicle: gum acacia 93 % of control | dose: 400.0 mg/kg/injection, schedule: Q04DX003 (ip), vehicle: gum acacia 86 % of control

COc1ccc([N+](=O)[O-])cc1NC(=O)Nc1cccc(C(F)(F)F)c1
inactive: dose: 100.0 mg/kg/injection, schedule: Q04DX002 (ip), vehicle: Klucel (hydroxypropylcellulose) (HPC) 96 % of control | dose: 200.0 mg/kg/injection, schedule: Q04DX002 (ip), vehicle: Klucel (hydroxypropylcellulose) (HPC) 101 % of control | dose: 400.0 mg/kg/injection, schedule: Q04DX002 (ip), vehicle: Klucel (hydroxypropylcellulose) (HPC) 96 % of control

c1ccc2c3nc4ccccc4c-3scc2c1
inactive: dose: 100.0 mg/kg/injection, schedule: Q01DX001 (ip), vehicle: acetone 100 % of control | dose: 200.0 mg/kg/injection, schedule: Q01DX001 (ip), vehicle: acetone 103 % of control

O=C1C2(Cl)C3(Cl)C4(OCCO4)C4(Cl)C2(Cl)C2(Cl)C1(Cl)C3(Cl)C42Cl (stereo not drawn)
inactive: dose: 50.0 mg/kg/injection, schedule: Q01DX001 (ip), vehicle: saline 100 % of control | [4] 100 % of control | [5] 105 % of control | [6] 96 % of control

CCCCCCCCCCCC(=O)NC(=S)Nc1ccc(C(=O)O)cc1
inactive: [1] 103 % of control | [19] 98 % of control and 101 % of control | [20] 102 % of control and 105 % of control | [16] 101 % of control | [2] 102 % of control | [21] 93 % of control and 103 % of control | [22] 100 % of control and 112 % of control | [17] 98 % of control | [3] 96 % of control | [23] 101 % of control and 92 % of control | [24] 103 % of control and 115 % of control | [18] 101 % of control

CC(C)C(CCN1CCCCC1)(CN=C(N)N)c1cccc2ccccc12 (stereo not drawn)
inactive: dose: 5.0 mg/kg/injection, schedule: Q01DX009 (ip), vehicle: saline 99 % of control | dose: 6.25 mg/kg/injection, schedule: Q04DX002 (ip), vehicle: saline 100 % of control | dose: 10.0 mg/kg/injection, schedule: Q01DX009 (ip), vehicle: saline 100 % of control | dose: 12.5 mg/kg/injection, schedule: Q04DX002 (ip), vehicle: saline 93 % of control | dose: 20.0 mg/kg/injection, schedule: Q01DX009 (ip), vehicle: saline 101 % of control | dose: 25.0 mg/kg/injection, schedule: Q04DX002 (ip), vehicle: saline 97 % of control

OCC#CC#CCO
inactive: dose: 25.0 mg/kg/injection, schedule: Q01DX009 (ip), vehicle: saline 95 % of control | dose: 50.0 mg/kg/injection, schedule: Q01DX009 (ip), vehicle: saline 115 % of control | dose: 100.0 mg/kg/injection, schedule: Q01DX009 (ip), vehicle: saline 105 % of control | dose: 100.0 mg/kg/injection, schedule: Q04DX003 (ip), vehicle: saline 103 % of control

COc1ccc(Cl)cc1NC(=O)Nc1cc(C)ccc1Cl
inactive: dose: 100.0 mg/kg/injection, schedule: Q01DX009 (ip), vehicle: Klucel (hydroxypropylcellulose) (HPC) 101 % of control | dose: 100.0 mg/kg/injection, schedule: Q04DX003 (ip), vehicle: Klucel (hydroxypropylcellulose) (HPC) 90 % of control | dose: 200.0 mg/kg/injection, schedule: Q01DX009 (ip), vehicle: Klucel (hydroxypropylcellulose) (HPC) 110 % of control | dose: 200.0 mg/kg/injection, schedule: Q04DX003 (ip), vehicle: Klucel (hydroxypropylcellulose) (HPC) 95 % of control | dose: 400.0 mg/kg/injection, schedule: Q01DX009 (ip), vehicle: Klucel (hydroxypropylcellulose) (HPC) 116 % of control | dose: 400.0 mg/kg/injection, schedule: Q04DX003 (ip), vehicle: Klucel (hydroxypropylcellulose) (HPC) 95 % of control

COC12CCCC1S(=O)(=O)C2 (stereo not drawn)
inactive: dose: 25.0 mg/kg/injection, schedule: Q01DX009 (ip), vehicle: saline with Tween-80 102 % of control | dose: 50.0 mg/kg/injection, schedule: Q01DX009 (ip), vehicle: saline with Tween-80 98 % of control

S=C(Nc1ccc(Cl)c(Cl)c1)SCc1ccc(Cl)c(Cl)c1
inactive: dose: 15.0 mg/kg/injection, schedule: Q04DX003 (ip), vehicle: saline 97 % of control | dose: 30.0 mg/kg/injection, schedule: Q04DX003 (ip), vehicle: saline 101 % of control | dose: 60.0 mg/kg/injection, schedule: Q04DX003 (ip), vehicle: saline 101 % of control | [13] 88 % of control | [14] 112 % of control | [15] 88 % of control

C#CCOCCC(=O)O
inactive: dose: 100.0 mg/kg/injection, schedule: Q04DX003 (ip), vehicle: acetone 106 % of control
